# Patent US7374870B2, “Systems and methods for removing viral agents from blood” (Fenwal, Inc., priority 1996, dated 2008)
# Assays:
# viruses = test: Viral inactivation by the photoreduction byproduct; settings: byproduct formed by exposing methylene blue to visible ambient light
# [1] = test system: encephalomyocarditis virus (EMC); settings: cited from earlier work
Structure (SMILES),effectiveness in inactivating viruses (viruses),virucidal action on non-enveloped EMC [1]
CN(C)c1ccc2c(c1)Sc1cc(N(C)C)ccc1N2 [leucomethylene blue],not effective in inactivating viruses,
CN(C)c1ccc2nc3ccc(=[N+](C)C)cc-3sc2c1 [methylene blue],,demonstrated a resistance to the virucidal action
